Measurements reported in patent US9650395B2, “Antibacterial compounds and methods for use” (PTC Therapeutics, Inc., priority 2011, dated 2017).
≈ marks a conversion by molar mass, not a printed value. Read-outs that look alike come from different tables or passages of the source.

What was measured:
[1] = system: super sensitive Gram-negative Escherichia coli (E. coli) BAS849; assay: Antibacterial activity, microbroth dilution MIC, E. coli BAS849; assay type: cell-based; details: Escherichia coli, read-out: MIC, BAS849
[2] = system: control Gram-negative E. coli 25922 strain; assay: Antibacterial activity, microbroth dilution MIC, E. coli 25922; assay type: cell-based, Escherichia coli; details: Escherichia coli; E. coli 25922, microbroth dilution; read-out: MIC, 25922
[3] = system: Gram-positive Staphylococcus aureus (S. aureus) 29213; assay: Antibacterial activity, microbroth dilution MIC, S. aureus 29213; assay type: cell-based; details: Staphylococcus aureus; S. aureus 29213, microbroth dilution; read-out: MIC, 29213
[4] = system: quinolone resistant E. coli LZ3111; assay: Antibacterial activity, MIC, quinolone resistant E. coli LZ3111; assay type: cell-based, Escherichia coli; details: Escherichia coli, read-out: MIC, LZ3111
Text: The antibacterial activity from a microbroth dilution method may be presented as the minimum inhibitory concentration (MIC in […]). The MIC value is the lowest concentration of a drug which prevents macroscopically visible bacterial growth under test conditions.
Mutations in these regions are known to confer a high level resistance to the quinolone class of antibiotics.

[5] = system: E. coli ELZ4000 (MDR clinical isolate); assay: Antibacterial activity, MIC, MDR E. coli ELZ4000; assay type: cell-based, Escherichia coli; details: Escherichia coli; E. coli ELZ4000, MDR clinical isolate; read-out: MIC ELZ4000
[6] = system: E. coli ELZ4251 (MDR clinical isolate); assay: Antibacterial activity, MIC, MDR E. coli ELZ4251; assay type: cell-based, Escherichia coli; details: Escherichia coli, E. coli ELZ4251, MDR clinical isolate; read-out: MIC ELZ4251
[7] = E. coli BAS849, microbroth dilution

Compound | MIC [1, 7] | MIC [2] | MIC [3] | MIC [4] | MIC [5] | MIC [6] | MIC [1]
CCc1cc(C(=O)O)c(=O)[nH]c1-c1ccc(N2CC[C@H](N=[N+]=[N-])C2)cc1 [Cpd 130, 6-{4-[(3S)-3-azidopyrrolidin-1-yl]phenyl}-5-ethyl-2-oxo-1,2-dihydropyridine-3-carboxylic acid] | < 1 µg/mL | 1 to 3.5 µg/mL (≈ 2.83 to 9.9 µM) | 3.5 to 12.5 µg/mL (≈ 9.9 to 35.4 µM) | 12.5 to 150 µg/mL (≈ 35.4 to 424 µM) | 12.5 to 150 µg/mL (≈ 35.4 to 424 µM) | 12.5 to 150 µg/mL (≈ 35.4 to 424 µM) | 
CCc1cc(C(=O)O)c(=O)[nH]c1-c1ccc(N2CCC(CN(C)Cc3ccccc3)C2)cc1.O=C(O)C(F)(F)F (stereo not shown) [Cpd 183, 6-[4-(3-{[benzyl(methyl)amino]methyl}pyrrolidin-1-yl)phenyl]-5-ethyl-2-oxo-1,2-dihydropyridine-3-carboxylic acid trifluoroacetate] |  | 3.5 to 12.5 µg/mL | 12.5 to 150 µg/mL | 12.5 to 150 µg/mL | 12.5 to 150 µg/mL | 12.5 to 150 µg/mL | < 1 µg/mL
CCc1cc(C(=O)O)c(=O)[nH]c1-c1ccc(N2C[C@H]3CN(C)C[C@H]3C2)cc1.Cl [Cpd 208, 5-ethyl-6-{4-[(3aR,6aS)-5-methylhexahydropyrrolo[3,4-c]pyrrol-2(1H)-yl]phenyl}-2-oxo-1,2-dihydropyridine-3-carboxylic acid hydrochloride] | 1 to 3.5 µg/mL | 3.5 to 12.5 µg/mL | 12.5 to 150 µg/mL | 12.5 to 150 µg/mL | 12.5 to 150 µg/mL | 12.5 to 150 µg/mL | 
CCc1cc(C(=O)O)c(=O)[nH]c1-c1ccc(N(C)CCN(C)C)cc1 [Cpd 161, 6-(4-{[2-(dimethylamino)ethyl](methyl)amino}phenyl)-5-ethyl-2-oxo-1,2-dihydropyridine-3-carboxylic acid] | < 1 µg/mL | 1 to 3.5 µg/mL (≈ 2.91 to 10.2 µM) | 12.5 to 150 µg/mL (≈ 36.4 to 437 µM) | 12.5 to 150 µg/mL (≈ 36.4 to 437 µM) | 12.5 to 150 µg/mL (≈ 36.4 to 437 µM) | 12.5 to 150 µg/mL (≈ 36.4 to 437 µM) | 
CCc1cc(C(=O)O)c(=O)[nH]c1-c1ccc(OC)cc1 [Cpd 24, 5-ethyl-6-(4-methoxyphenyl)-2-oxo-1,2-dihydropyridine-3-carboxylic acid] | < 1 µg/mL | 3.5 to 12.5 µg/mL (≈ 12.8 to 45.7 µM) | 12.5 to 150 µg/mL (≈ 45.7 to 549 µM) | 12.5 to 150 µg/mL (≈ 45.7 to 549 µM) | 12.5 to 150 µg/mL (≈ 45.7 to 549 µM) | 12.5 to 150 µg/mL (≈ 45.7 to 549 µM) | 
CC(C)c1cc(C(=O)O)c(=O)[nH]c1-c1ccc(N2CCCC2)cc1 [Cpd 163, 5-isopropyl-2-oxo-6-[4-(pyrrolidin-1-yl)phenyl]-1,2-dihydropyridine-3-carboxylic acid] | < 1 µg/mL | 3.5 to 12.5 µg/mL (≈ 10.7 to 38.3 µM) | 12.5 to 150 µg/mL (≈ 38.3 to 460 µM) | 12.5 to 150 µg/mL (≈ 38.3 to 460 µM) | 12.5 to 150 µg/mL (≈ 38.3 to 460 µM) | 12.5 to 150 µg/mL (≈ 38.3 to 460 µM) | 
CCc1cc(C(=O)O)c(=O)[nH]c1-c1ccc(N2CC3NCCOC3C2)cc1.Cl (stereo not shown) [Cpd 179, 5-ethyl-6-[4-(hexahydropyrrolo[3,4-b][1,4]oxazin-6(2H)-yl)phenyl]-2-oxo-1,2-dihydropyridine-3-carboxylic acid hydrochloride] | 1 to 3.5 µg/mL | 3.5 to 12.5 µg/mL | 12.5 to 150 µg/mL | 12.5 to 150 µg/mL | 12.5 to 150 µg/mL | 12.5 to 150 µg/mL | 
CCc1cc(C(=O)O)c(=O)[nH]c1-c1ccc(N2C[C@H]3CN(Cc4ccccc4)C[C@H]3C2)cc1.Cl [Cpd 206, 6-{4-[(3aR,6aS)-5-benzylhexahydropyrrolo[3,4-c]pyrrol-2(1H)-yl]phenyl}-5-ethyl-2-oxo-1,2-dihydropyridine-3-carboxylic acid hydrochloride] | 1 to 3.5 µg/mL | 3.5 to 12.5 µg/mL | 12.5 to 150 µg/mL | 12.5 to 150 µg/mL | 12.5 to 150 µg/mL | 12.5 to 150 µg/mL | 
CCc1c(-c2ccc(N(C)C)cc2F)[nH]c(=O)c(C(=O)O)c1O [Cpd 55, 6-[4-(dimethylamino)-2-fluorophenyl]-5-ethyl-4-hydroxy-2-oxo-1,2-dihydropyridine-3-carboxylic acid] | < 1 µg/mL | 12.5 to 150 µg/mL (≈ 39 to 468 µM) | 3.5 to 12.5 µg/mL (≈ 10.9 to 39 µM) | 12.5 to 150 µg/mL (≈ 39 to 468 µM) |  |  | 
O=C(O)c1cc(C2CC2)c(-c2ccc(N3CCCC3)cc2)[nH]c1=O [Cpd 164, 5-cyclopropyl-2-oxo-6-[4-(pyrrolidin-1-yl)phenyl]-1,2-dihydropyridine-3-carboxylic acid] | < 1 µg/mL | 1 to 3.5 µg/mL (≈ 3.08 to 10.8 µM) | 3.5 to 12.5 µg/mL (≈ 10.8 to 38.5 µM) | 12.5 to 150 µg/mL (≈ 38.5 to 462 µM) | 12.5 to 150 µg/mL (≈ 38.5 to 462 µM) | 12.5 to 150 µg/mL (≈ 38.5 to 462 µM) | 
CCc1cc(C(=O)O)c(=O)[nH]c1-c1ccc(N2CCC(C3(N)CCC3)C2)cc1.O=C(O)C(F)(F)F (stereo not shown) [Cpd 218, 6-{4-[3-(1-aminocyclobutyl)pyrrolidin-1-yl]phenyl}-5-ethyl-2-oxo-1,2-dihydropyridine-3-carboxylic acid trifluoroacetate] |  | 3.5 to 12.5 µg/mL | 12.5 to 150 µg/mL | 12.5 to 150 µg/mL |  |  | 1 to 3.5 µg/mL
CCc1cc(C(=O)O)c(=O)[nH]c1-c1ccc(N2CCC(CNCc3ccccc3F)C2)cc1 (stereo not shown) [Cpd 240, 5-ethyl-6-[4-(3-{[(2-fluorobenzyl)amino]methyl}pyrrolidin-1-yl)phenyl]-2-oxo-1,2-dihydropyridine-3-carboxylic acid] | < 1 µg/mL | 1 to 3.5 µg/mL (≈ 2.22 to 7.79 µM) | 12.5 to 150 µg/mL (≈ 27.8 to 334 µM) | 12.5 to 150 µg/mL (≈ 27.8 to 334 µM) |  |  | 
CCc1cc(C(=O)O)c(=O)[nH]c1-c1ccc(N2CCC(CNC)C2)cc1.Cl (stereo not shown) [Cpd 184, 5-ethyl-6-(4-{3-[(methylamino)methyl]pyrrolidin-1-yl}phenyl)-2-oxo-1,2-dihydropyridine-3-carboxylic acid hydrochloride] | 1 to 3.5 µg/mL | 12.5 to 150 µg/mL | 12.5 to 150 µg/mL | 12.5 to 150 µg/mL |  |  | 
CCc1c(-c2ccc(N3CC4=CCCC[C@@H]4C3)cc2)[nH]c(=O)c(C(=O)O)c1O.Cl [Cpd 297, 5-ethyl-6-{4-[(3aS)-1,3,3a,4,5,6-hexahydro-2H-isoindol-2-yl]phenyl}-4-hydroxy-2-oxo-1,2-dihydropyridine-3-carboxylic acid hydrochloride] | < 1 µg/mL | 12.5 to 150 µg/mL | 3.5 to 12.5 µg/mL | 12.5 to 150 µg/mL |  |  | 
CCc1cc(C(=O)O)c(=O)[nH]c1-c1cc(CN2CCCC2)n(C)c1 [Cpd 348, 5-ethyl-6-(1-methyl-5-(pyrrolidin-1-ylmethyl)-1H-pyrrol-3-yl)-2-oxo-1,2-dihydropyridine-3-carboxylic acid] | 3.5 to 12.5 µg/mL (≈ 10.6 to 37.9 µM) | 12.5 to 150 µg/mL (≈ 37.9 to 455 µM) | 12.5 to 150 µg/mL (≈ 37.9 to 455 µM) | 12.5 to 150 µg/mL (≈ 37.9 to 455 µM) |  |  | 
CCc1c(-c2ccc(N3CCC(N(C)C)C3)cc2F)[nH]c(=O)c(C(=O)O)c1O (stereo not shown) [Cpd 291, 6-{4-[3-(dimethylamino)pyrrolidin-1-yl]-2-fluorophenyl}-5-ethyl-4-hydroxy-2-oxo-1,2-dihydropyridine-3-carboxylic acid] | 1 to 3.5 µg/mL (≈ 2.57 to 8.99 µM) | 3.5 to 12.5 µg/mL (≈ 8.99 to 32.1 µM) | 12.5 to 150 µg/mL (≈ 32.1 to 385 µM) | 12.5 to 150 µg/mL (≈ 32.1 to 385 µM) |  |  | 
CCc1c(-c2ccc(N3CC4CC3CN4)cc2)[nH]c(=O)c(C(=O)O)c1O.O=C(O)C(F)(F)F (stereo not shown) [Cpd 295, 6-[4-(2,5-diazabicyclo[2.2.1]hept-2-yl)phenyl]-5-ethyl-4-hydroxy-2-oxo-1,2-dihydropyridine-3-carboxylic acid trifluoroacetate] |  | 12.5 to 150 µg/mL | 12.5 to 150 µg/mL | 12.5 to 150 µg/mL |  |  | 1 to 3.5 µg/mL
CCc1cc(C(=O)O)c(=O)[nH]c1-c1ccc(N2CCC(CNCc3ccccn3)C2)cc1 (stereo not shown) [Cpd 243, 5-ethyl-2-oxo-6-[4-(3-{[(pyridin-2-ylmethyl)amino]methyl}pyrrolidin-1-yl)phenyl]-1,2-dihydropyridine-3-carboxylic acid] | < 1 µg/mL | 1 to 3.5 µg/mL (≈ 2.31 to 8.09 µM) | 12.5 to 150 µg/mL (≈ 28.9 to 347 µM) | 12.5 to 150 µg/mL (≈ 28.9 to 347 µM) |  |  | 
CCc1c(-c2ccc(N3CCC(OC)CC3)cc2)[nH]c(=O)c(C(=O)O)c1O [Cpd 282, 5-ethyl-4-hydroxy-6-[4-(4-methoxypiperidin-1-yl)phenyl]-2-oxo-1,2-dihydropyridine-3-carboxylic acid] | < 1 µg/mL | 12.5 to 150 µg/mL (≈ 33.6 to 403 µM) | 12.5 to 150 µg/mL (≈ 33.6 to 403 µM) | 12.5 to 150 µg/mL (≈ 33.6 to 403 µM) |  |  | 
CCc1c(-c2ccc(N3C[C@H](CN(Cc4ccccc4)Cc4ccccc4)[C@@H](C)C3)cc2)[nH]c(=O)c(C(=O)O)c1O [Cpd 249, 6-(4-{(3S,4R)-3-[(dibenzylamino)methyl]-4-methylpyrrolidin-1-yl}phenyl)-5-ethyl-4-hydroxy-2-oxo-1,2-dihydropyridine-3-carboxylic acid] | 12.5 to 150 µg/mL (≈ 22.7 to 272 µM) | 12.5 to 150 µg/mL (≈ 22.7 to 272 µM) | 12.5 to 150 µg/mL (≈ 22.7 to 272 µM) | 12.5 to 150 µg/mL (≈ 22.7 to 272 µM) |  |  | 
CCc1cc(C(=O)O)c(=O)[nH]c1-c1ccc(N2C[C@H]3C[C@@H](NC)[C@H]3C2)cc1.Cl [Cpd 210, 5-ethyl-6-{4-[(1S,5R,6R)-6-(methylamino)-3-azabicyclo[3.2.0]hept-3-yl]phenyl}-2-oxo-1,2-dihydropyridine-3-carboxylic acid hydrochloride] | 1 to 3.5 µg/mL | 12.5 to 150 µg/mL | 12.5 to 150 µg/mL | 12.5 to 150 µg/mL |  |  | 
CCc1cc(C(=O)O)c(=O)[nH]c1-c1ccc(N2C[C@H]3CCCC[C@@]3(CN(C)C)C2)cc1.O=C(O)C(F)(F)F [Cpd 205, 6-(4-{(3aR,7aS)-3a-[(dimethylamino)methyl]octahydro-2H-isoindol-2-yl}phenyl)-5-ethyl-2-oxo-1,2-dihydropyridine-3-carboxylic acid trifluoroacetate] |  | 12.5 to 150 µg/mL | 12.5 to 150 µg/mL | 12.5 to 150 µg/mL |  |  | 1 to 3.5 µg/mL
